Experimental data taken from ChEMBL document CHEMBL5042515, “Design and Evaluation of a Novel Peptide-Drug Conjugate Covalently Targeting SARS-CoV-2 Papain-like Protease” (J Med Chem, 2022).
Active and inactive are the calls of the source. No cut-off for these calls is given here. *1 amine or outer side, *2 acyl side, *3 side chain or, on linkers, in order; H or OH if unused. Where a SMILES comes first, the peptide text is derived from it. Bridges are numbered along the chain shown (N, C = ends). [ ]: non-standard residue; d: D form. The star is where a group is joined. Met(S-mXyl) = C[S+](CC[C@H](N[*:1])C(=O)[*:2])Cc1cccc(C[*:3])c1; X1 = Cc1ccc(N*)cc1C(=O)NC(C)c1cccc2ccccc12

System: Severe acute respiratory syndrome coronavirus 2
Experiment: Covalent binding affinity to SARS-CoV-2 mutant PLpro Cys111S at 10 uM incubated for 2 hrs by SDS gel analysis

Question: `Cc1ccc(NC(=O)CC[C@H](N)C(=O)N[C@H]2CC[S+](C)Cc3cccc(c3)CSC[C@@H](C(=O)O)NC(=O)CNC(=O)[C@H](CCCNC(=N)N)NC(=O)[C@H](CC(C)C)NC2=O)cc1C(=O)NC(C)c1cccc2ccccc12` (stereo partly specified) (H-E(X1)[Met(S-mXyl)]LRGC-OH; thioether 2-6) was tested. Which Activity did it give?
Answer: The Activity was “inactive”.
